Converted amounts (≈) assume the structure as drawn.

These results are taken from ChEMBL document CHEMBL3259801, “Design and synthesis of new vancomycin derivatives” (Bioorg Med Chem Lett, 2014).

In assay [1] the test system is Staphylococcus aureus. Description: Antibacterial activity against vancomycin-sensitive Staphylococcus aureus Newman assessed as inhibition of bacterial growth after 16 hrs. The assay is classed as functional, organism-based.
The test system of assay [2] is Staphylococcus aureus. Description: Antibacterial activity against vancomycin-intermediate resistant Staphylococcus aureus Mu50 assessed as inhibition of bacterial growth after 16 hrs. It is filed as functional, organism-based. Particulars: Mu50, 16 h.

Broadly, the IC50 is the midpoint of a concentration-inhibition curve. `CN[C@H](CC(C)C)C(=O)N[C@H]1C(=O)N[C@@H](CC(N)=O)C(=O)N[C@H]2C(=O)N[C@H]3C(=O)N[C@H](C(=O)N[C@H](C(=O)O)c4cc(O)cc(O)c4-c4cc3ccc4O)[C@H](O)c3ccc(c(Cl)c3)Oc3cc2cc(c3O[C@@H]2O[C@H](CO)[C@@H](O)[C@H](O)[C@H]2O[C@H]2C[C@](C)(NCc3ccc(-c4ccc(Cl)cc4)cc3)[C@H](O)[C@H](C)O2)Oc2ccc(cc2Cl)[C@H]1O`: the results for the IC50 in assay [1] and in assay [2] were under 0.125 mg/L and 2 mg/L (≈ 1.21 µM), respectively.
Turning to `CN[C@H](CC(C)C)C(=O)N[C@H]1C(=O)N[C@@H](CC(N)=O)C(=O)N[C@H]2C(=O)N[C@H]3C(=O)N[C@H](C(=O)N[C@H](C(=O)O)c4cc(O)cc(O)c4-c4cc3ccc4O)[C@H](O)c3ccc(c(Cl)c3)Oc3cc2cc(c3O[C@@H]2O[C@H](CO)[C@@H](O)[C@H](O)[C@H]2O[C@H]2C[C@](C)(NCC(OCc3ccccc3)C(=O)OC)[C@H](O)[C@H](C)O2)Oc2ccc(cc2Cl)[C@H]1O` (stereo not given in full), the IC50 in assay [1] is 8 mg/L (≈ 4.87 µM); in assay [2] it was 32 mg/L (≈ 19.5 µM).
Consider `CN[C@H](CC(C)C)C(=O)N[C@H]1C(=O)N[C@@H](CC(N)=O)C(=O)N[C@H]2C(=O)N[C@H]3C(=O)N[C@H](C(=O)N[C@H](C(=O)O)c4cc(O)cc(O)c4-c4cc3ccc4O)[C@H](O)c3ccc(c(Cl)c3)Oc3cc2cc(c3O[C@@H]2O[C@H](CO)[C@@H](O)[C@H](O)[C@H]2O[C@H]2C[C@](C)(NCC(OCc3ccc(-c4ccc(Cl)cc4)cc3)C(=O)OC)[C@H](O)[C@H](C)O2)Oc2ccc(cc2Cl)[C@H]1O` (stereo not given in full), for which the half-inhibitory concentration (IC50) was under 0.125 mg/L in assay [1] and 2 mg/L (≈ 1.14 µM) in assay [2].
Consider `CCCCOC(CN[C@@]1(C)C[C@H](O[C@H]2[C@H](Oc3c4cc5cc3Oc3ccc(cc3Cl)[C@@H](O)[C@@H](NC(=O)[C@@H](CC(C)C)NC)C(=O)N[C@@H](CC(N)=O)C(=O)N[C@H]5C(=O)N[C@H]3C(=O)N[C@H](C(=O)N[C@H](C(=O)O)c5cc(O)cc(O)c5-c5cc3ccc5O)[C@H](O)c3ccc(c(Cl)c3)O4)O[C@H](CO)[C@@H](O)[C@@H]2O)O[C@@H](C)[C@H]1O)C(=O)OC` (stereo not given in full), for which the half-inhibitory concentration (IC50) in assay [1] came out at 16 mg/L (≈ 9.95 µM); in assay [2] it was 64 mg/L (≈ 39.8 µM).
Turning to `CCCCCCOC(CN[C@@]1(C)C[C@H](O[C@H]2[C@H](Oc3c4cc5cc3Oc3ccc(cc3Cl)[C@@H](O)[C@@H](NC(=O)[C@@H](CC(C)C)NC)C(=O)N[C@@H](CC(N)=O)C(=O)N[C@H]5C(=O)N[C@H]3C(=O)N[C@H](C(=O)N[C@H](C(=O)O)c5cc(O)cc(O)c5-c5cc3ccc5O)[C@H](O)c3ccc(c(Cl)c3)O4)O[C@H](CO)[C@@H](O)[C@@H]2O)O[C@@H](C)[C@H]1O)C(=O)OC` (stereo not given in full), the IC50 in assay [1] was determined as 2 mg/L (≈ 1.22 µM); in assay [2], 4 mg/L (≈ 2.45 µM).
`CN[C@H](CC(C)C)C(=O)N[C@H]1C(=O)N[C@@H](CC(N)=O)C(=O)N[C@H]2C(=O)N[C@H]3C(=O)N[C@H](C(=O)N[C@H](C(=O)O)c4cc(O)cc(O)c4-c4cc3ccc4O)[C@H](O)c3ccc(c(Cl)c3)Oc3cc2cc(c3O[C@@H]2O[C@H](CO)[C@@H](O)[C@H](O)[C@H]2O[C@H]2C[C@](C)(NCC(OCc3ccccc3)C(=O)O)[C@H](O)[C@H](C)O2)Oc2ccc(cc2Cl)[C@H]1O` (stereo not given in full): the IC50 in assay [1] was determined as 16 mg/L (≈ 9.83 µM); in assay [2], 64 mg/L (≈ 39.3 µM).
Regarding `CN[C@H](CC(C)C)C(=O)N[C@H]1C(=O)N[C@@H](CC(N)=O)C(=O)N[C@H]2C(=O)N[C@H]3C(=O)N[C@H](C(=O)N[C@H](C(=O)O)c4cc(O)cc(O)c4-c4cc3ccc4O)[C@H](O)c3ccc(c(Cl)c3)Oc3cc2cc(c3O[C@@H]2O[C@H](CO)[C@@H](O)[C@H](O)[C@H]2O[C@H]2C[C@](C)(NCC(OCc3ccc(-c4ccc(Cl)cc4)cc3)C(=O)O)[C@H](O)[C@H](C)O2)Oc2ccc(cc2Cl)[C@H]1O` (stereo not given in full), the values for the half-maximal inhibitory concentration (IC50) in assay [1] and in assay [2] were under 0.125 mg/L and 2 mg/L (≈ 1.15 µM), respectively.
In the case of `CCCCOC(CN[C@@]1(C)C[C@H](O[C@H]2[C@H](Oc3c4cc5cc3Oc3ccc(cc3Cl)[C@@H](O)[C@@H](NC(=O)[C@@H](CC(C)C)NC)C(=O)N[C@@H](CC(N)=O)C(=O)N[C@H]5C(=O)N[C@H]3C(=O)N[C@H](C(=O)N[C@H](C(=O)O)c5cc(O)cc(O)c5-c5cc3ccc5O)[C@H](O)c3ccc(c(Cl)c3)O4)O[C@H](CO)[C@@H](O)[C@@H]2O)O[C@@H](C)[C@H]1O)C(=O)O` (stereo not given in full), the 50% inhibitory concentration (IC50) in assay [1] amounted to 64 mg/L (≈ 40.2 µM); in assay [2] it was 128 mg/L (≈ 80.3 µM).
`CCCCCCOC(CN[C@@]1(C)C[C@H](O[C@H]2[C@H](Oc3c4cc5cc3Oc3ccc(cc3Cl)[C@@H](O)[C@@H](NC(=O)[C@@H](CC(C)C)NC)C(=O)N[C@@H](CC(N)=O)C(=O)N[C@H]5C(=O)N[C@H]3C(=O)N[C@H](C(=O)N[C@H](C(=O)O)c5cc(O)cc(O)c5-c5cc3ccc5O)[C@H](O)c3ccc(c(Cl)c3)O4)O[C@H](CO)[C@@H](O)[C@@H]2O)O[C@@H](C)[C@H]1O)C(=O)O` (stereo not given in full): the IC50 in assay [1] amounted to 4 mg/L (≈ 2.47 µM); in assay [2], 8 mg/L (≈ 4.93 µM).
`CN[C@H](CC(C)C)C(=O)N[C@H]1C(=O)N[C@@H](CC(N)=O)C(=O)N[C@H]2C(=O)N[C@H]3C(=O)N[C@H](C(=O)N[C@H](C(=O)O)c4cc(O)cc(O)c4-c4cc3ccc4O)[C@H](O)c3ccc(c(Cl)c3)Oc3cc2cc(c3O[C@@H]2O[C@H](CO)[C@@H](O)[C@H](O)[C@H]2O[C@H]2C[C@](C)(N)[C@H](O)[C@H](C)O2)Oc2ccc(cc2Cl)[C@H]1O` [VANCOMYCIN]: the half-inhibitory concentration (IC50) came out at 2 mg/L (≈ 1.38 µM) in assay [1] and 8 mg/L (≈ 5.52 µM) in assay [2].
